Values quoted from earlier work as cited in paper PMC7821949 (Biomolecules, 2020).

System: α-Bgt

Q: With “HAP: Combinatorial high-affinity peptide HAP. (WRYYESSLLPYPD)” as the substance, how does the “affinity for α-Bgt” value read?
A: 2 to 4 nM
